Here are results for 24 molecules from ChEMBL document CHEMBL5030546, “Synthesis of thiocolchicine amine derivatives and evaluation of their antiproliferative activity” (Bioorg Med Chem Lett, 2021).

Molecules are shown by their SMILES.

One data set relates to A549. In words: cells. It counts as functional, cell-based. The note with it: Homo sapiens, A549, 72 h.
Another data set deals with LoVo. In words: cells. It counts as functional, cell-based. The note with it: Homo sapiens, 72 h.
The subject of the next data set is BALB/3T3. The experiment in a line: Cytotoxicity against mouse BALB/3T3 cells assessed as reduction in cell viability incubated for 72 hrs by SRB assay. Format: ADME, cell-based. The note with it: BALB/3T3, 72 h.
A short description of the next data set: cells. Format: functional, cell-based. The note with it: Homo sapiens, LoVo/DX, 72 h.
Data set [1] in a line: Resistance index, ratio of IC50 for human LoVo/DX cells to IC50 for human LoVo cells. Format: functional.
For the next data set, the system named is MCF7. In words: cells. Format: functional, cell-based. The note with it: Homo sapiens, MCF7, 72 h.
The nature of data set [2]: Selectivity index, ratio of IC50 for mouse BALB/3T3 cells to IC50 for human LoVo/DX cells. The note with it: BALB/3T3 cells versus LoVo/DX cells, read-out: Ratio IC50. It counts as toxicity.
A short description of data set [3]: Selectivity index, ratio of IC50 for mouse BALB/3T3 cells to IC50 for human MCF7 cells. It counts as toxicity. The note with it: BALB/3T3 cells versus MCF7 cells, read-out: Ratio IC50.
Data set [4] is described as follows: Selectivity index, ratio of IC50 for mouse BALB/3T3 cells to IC50 for human A549 cells. Format: toxicity. The note with it: BALB/3T3 cells versus A549 cells, read-out: Ratio IC50.
Data set [5] can be described thus: Selectivity index, ratio of IC50 for mouse BALB/3T3 cells to IC50 for human LoVo cells. It counts as toxicity. The note with it: BALB/3T3 cells versus LoVo cells, read-out: Ratio IC50.

Description for A549: Antiproliferative activity against human A549 cells assessed as inhibition of cell proliferation incubated for 72 hrs by SRB assay
Description for LoVo: Antiproliferative activity against human LoVo cells assessed as inhibition of cell proliferation incubated for 72 hrs by SRB assay
Description for MCF7: Antiproliferative activity against human MCF7 cells assessed as inhibition of cell proliferation incubated for 72 hrs by SRB assay

With `CCN[C@H]1CCc2cc(OC)c(OC)c(OC)c2-c2ccc(SC)c(=O)cc21`, the IC50 in the data set with A549 was 10.8 nM; in the data set on LoVo, 6.5 nM; in the data set with BALB/3T3, 10.2 nM; in “cells” it was 54.9 nM; in the data set with MCF7, 10.3 nM. Besides, the “Ratio IC50” value in [1] stood at 8.5.
Regarding `COc1cc2c(c(OC)c1OC)-c1ccc(SC)c(=O)cc1[C@@H](NCc1ccc(F)cc1)CC2`, the IC50 with A549 was determined as 9.6 nM; with LoVo, 7.6 nM; with BALB/3T3, 11.7 nM; in the data set “cells”, 33.2 nM; in the data set on MCF7 it was 11.2 nM. Further, in [1], the “Ratio IC50” value was found to be 4.4.
Turning to `CCCC(C)CN[C@H]1CCc2cc(OC)c(OC)c(OC)c2-c2ccc(SC)c(=O)cc21` (stereo partly specified), the IC50 in the data set with A549 turned out to be 11 nM; in the data set on LoVo, 12 nM; in the data set with BALB/3T3 it was 78.5 nM; in “cells”, 70.2 nM; with MCF7 it was 17.8 nM. In data set [1], the “Ratio IC50” value is on record as 5.8.
Consider `COc1cc2c(c(OC)c1OC)-c1ccc(SC)c(=O)cc1[C@@H](NCc1ccncc1)CC2`, for which the IC50 with A549 stood at 10.9 nM; with LoVo, 7.8 nM; in the data set on BALB/3T3 it was 10.9 nM; in the data set “cells”, 56.2 nM; with MCF7, 9.7 nM. For the same molecule, the “Ratio IC50” value in data set [1] is 7.2.
Regarding `COc1cc2c(c(OC)c1OC)-c1ccc(SC)c(=O)cc1[C@@H](NCc1ccccc1O)CC2`, the IC50 in the data set on A549 was determined as 9.3 nM; in the data set on LoVo it was 9.4 nM; in the data set with BALB/3T3, 8.8 nM; in “cells”, 41.7 nM; in the data set with MCF7 it was 10.3 nM. In data set [1], the “Ratio IC50” value came to 4.5.
Regarding `CCCCCN[C@H]1CCc2cc(OC)c(OC)c(OC)c2-c2ccc(SC)c(=O)cc21`, the IC50 in the data set on A549 came to 89.5 nM; in the data set on LoVo, 52.8 nM; in the data set with BALB/3T3, 99.4 nM; in “cells”, 77.8 nM; in the data set with MCF7, 92.7 nM. In addition, the “Ratio IC50” value in data set [1] was 1.5.
Consider `COc1cc(CN[C@H]2CCc3cc(OC)c(OC)c(OC)c3-c3ccc(SC)c(=O)cc32)ccc1O`, for which the 50% inhibitory concentration (IC50) in the data set on A549 worked out at 7.1 nM; with LoVo, 53.3 nM; in the data set with BALB/3T3, 385 nM; in “cells”, 85.6 nM; with MCF7, 8.2 nM. In addition, the selectivity ratio in data set [2] turned out to be 4.5; in data set [3] it was 46.9; in data set [4], 54.2; in data set [5], 7.2. For the same molecule, the “Ratio IC50” value in data set [1] was 1.8.
On to `CCCCN[C@H]1CCc2cc(OC)c(OC)c(OC)c2-c2ccc(SC)c(=O)cc21`, for which the IC50 in the data set with A549 came out at 10.9 nM; in the data set with LoVo, 8.8 nM; in the data set on BALB/3T3, 11.7 nM; in the data set “cells” it was 17.9 nM; in the data set on MCF7 it was 12.2 nM. Besides, the “Ratio IC50” value in data set [1] is on record as 2.
As for `COc1ccc(CN[C@H]2CCc3cc(OC)c(OC)c(OC)c3-c3ccc(SC)c(=O)cc32)cc1O`, the IC50 with A549 amounted to 10.8 nM; in the data set with LoVo, 8.8 nM; in the data set with BALB/3T3, 10.8 nM; in “cells” it was 69.4 nM; in the data set on MCF7, 10.3 nM. The “Ratio IC50” value in data set [1] worked out at 7.9.
Turning to `COc1cc2c(c(OC)c1OC)-c1ccc(SC)c(=O)cc1[C@@H](NCc1ccc(Cl)cc1)CC2`, the IC50 in the data set with A549 worked out at 70.5 nM; in the data set with LoVo, 37 nM; in the data set with BALB/3T3 it was 88.2 nM; in “cells”, 64.9 nM; in the data set on MCF7, 73.4 nM. In addition, in data set [1], the “Ratio IC50” value came to 1.8.
As to `COc1cc2c(c(OC)c1OC)-c1ccc(SC)c(=O)cc1[C@@H](NCc1ccc(I)cc1)CC2`, the IC50 in the data set with A549 was found to be 101 nM; in the data set on LoVo, 72.4 nM; in the data set with BALB/3T3, 119 nM; in the data set “cells”, 234 nM; in the data set on MCF7 it was 84.2 nM. The “Ratio IC50” value in data set [1] amounted to 3.2.
`COc1cc2c(c(OC)c1OC)-c1ccc(SC)c(=O)cc1[C@@H](NCCc1ccccc1)CC2`: the IC50 in the data set with A549 is 10.7 nM; in the data set on LoVo it was 10.7 nM; in the data set with BALB/3T3, 61.2 nM; in the data set “cells”, 66.9 nM; in the data set with MCF7, 11.4 nM. Also, the “Ratio IC50” value in data set [1] stood at 6.2.
In the case of `COc1cc2c(c(OC)c1OC)-c1ccc(SC)c(=O)cc1[C@@H](NCC(C)C)CC2`, the IC50 was 10.5 nM with A549; 8.5 nM in the data set with LoVo; 11 nM in the data set with BALB/3T3; 10.2 nM in the data set “cells”; 11.3 nM in the data set with MCF7. The “Ratio IC50” value in data set [1] was found to be 1.2.
As to `COc1cc2c(c(OC)c1OC)-c1ccc(SC)c(=O)cc1[C@@H](NCc1ccccc1)CC2`, the IC50 was found to be 9.6 nM with A549; 7.9 nM with LoVo; 9.8 nM in the data set on BALB/3T3; 13.9 nM in the data set “cells”; 10.3 nM in the data set on MCF7. Also, the “Ratio IC50” value in [1] stood at 1.8.
In the case of `CCCN[C@H]1CCc2cc(OC)c(OC)c(OC)c2-c2ccc(SC)c(=O)cc21`, the IC50 in the data set on A549 worked out at 11.6 nM; in the data set on LoVo it was 8.5 nM; with BALB/3T3, 14.3 nM; in “cells”, 31.1 nM; in the data set on MCF7 it was 12 nM. Further, in data set [1], the “Ratio IC50” value is recorded as 3.7.
Consider `CCCCCCN[C@H]1CCc2cc(OC)c(OC)c(OC)c2-c2ccc(SC)c(=O)cc21`, for which the IC50 in the data set with A549 was 104 nM; with LoVo, 83 nM; in the data set on BALB/3T3 it was 107 nM; in the data set “cells”, 72.7 nM; in the data set with MCF7, 109 nM. In addition, the “Ratio IC50” value in [1] worked out at 0.9.
As to `CCCCCCCCN[C@H]1CCc2cc(OC)c(OC)c(OC)c2-c2ccc(SC)c(=O)cc21`, the IC50 in the data set on A549 was found to be 1010 nM; with LoVo, 903 nM; in the data set on BALB/3T3, 1040 nM; in the data set “cells” it was 693 nM; with MCF7, 1120 nM. Besides, the “Ratio IC50” value in data set [1] came out at 0.8.
For `COc1cc2c(c(OC)c1OC)-c1ccc(SC)c(=O)cc1[C@@H](NCCC(C)C)CC2`, the IC50 with A549 worked out at 13.1 nM; with LoVo, 8.4 nM; in the data set with BALB/3T3, 13.3 nM; in the data set “cells”, 9.4 nM; in the data set on MCF7, 12 nM. Besides, the “Ratio IC50” value in [1] was 1.
Consider `COc1cc2c(c(OC)c1OC)-c1ccc(SC)c(=O)cc1[C@@H](NC/C=C/c1ccccc1)CC2`, for which the IC50 is 95 nM in the data set on A549; 79.2 nM in the data set on LoVo; 98.6 nM in the data set with BALB/3T3; 210 nM in the data set “cells”; 102 nM with MCF7. The “Ratio IC50” value in data set [1] came out at 2.7.
Take `COc1cc2c(c(OC)c1OC)-c1ccc(SC)c(=O)cc1[C@@H](NCc1cccc(CN[C@H]3CCc4cc(OC)c(OC)c(OC)c4-c4ccc(SC)c(=O)cc43)n1)CC2`: the IC50 with A549 stood at 47.3 nM; in the data set on LoVo it was 27.9 nM; in the data set with BALB/3T3 it was 50.3 nM; in “cells”, 400 nM; in the data set with MCF7, 7.7 nM. Also, the “Ratio IC50” value in data set [1] was determined as 14.3.
For `COc1cc2c(c(OC)c1OC)-c1ccc(SC)c(=O)cc1[C@@H](NCc1ccc(C)cc1)CC2`, the IC50 was 83.4 nM in the data set with A549; 47.6 nM in the data set on LoVo; 85.4 nM in the data set with BALB/3T3; 52.3 nM in “cells”; 100 nM in the data set on MCF7. In addition, the “Ratio IC50” value in data set [1] turned out to be 1.1.
For `CCCCCCCCCCCCN[C@H]1CCc2cc(OC)c(OC)c(OC)c2-c2ccc(SC)c(=O)cc21`, the 50% inhibitory concentration (IC50) in the data set with A549 is 152 nM; with LoVo, 453 nM; in the data set on BALB/3T3, 1070 nM; in “cells”, 1980 nM; with MCF7, 719 nM. For the same molecule, the “Ratio IC50” value in data set [1] was determined as 4.4.
In the case of `COc1cc2c(c(OC)c1OC)-c1ccc(OC)c(=O)cc1[C@@H](NC(C)=O)CC2` [COLCHICINE], the IC50 in the data set with A549 was 19.3 nM; in the data set with LoVo it was 12.7 nM; in the data set with BALB/3T3, 82.3 nM; in “cells” it was 967 nM.
With `COc1cccc2c1C(=O)c1c(O)c3c(c(O)c1C2=O)C[C@@](O)(C(=O)CO)C[C@@H]3O[C@H]1C[C@H](N)[C@H](O)[C@H](C)O1` [DOXORUBICIN], the IC50 in the data set on A549 came out at 149 nM; in the data set with LoVo it was 71 nM; with BALB/3T3 it was 315 nM; in “cells” it was 3960 nM; with MCF7, 146 nM. In data set [1], the “Ratio IC50” value worked out at 56.

Broadly, the IC50 is the point on the concentration scale where inhibition reaches its midpoint.
